{"source": "patent US8124794B2", "about": "“Method for the asymmetric synthesis of beta-lactone compounds” (Sanford-Burnham Medical Research Institute, priority 2006, dated 2012)", "key": {"[1]": {"target": "T1, recombinant thioesterase domain of fatty acid synthase (FAS TE) (Homo sapiens, UniProt P49327)", "T1 construct": "Expression of the recombinant thioesterase domain of FAS was performed as described previously", "T1 sequence (P49327 2207-2511 limits assumed)": "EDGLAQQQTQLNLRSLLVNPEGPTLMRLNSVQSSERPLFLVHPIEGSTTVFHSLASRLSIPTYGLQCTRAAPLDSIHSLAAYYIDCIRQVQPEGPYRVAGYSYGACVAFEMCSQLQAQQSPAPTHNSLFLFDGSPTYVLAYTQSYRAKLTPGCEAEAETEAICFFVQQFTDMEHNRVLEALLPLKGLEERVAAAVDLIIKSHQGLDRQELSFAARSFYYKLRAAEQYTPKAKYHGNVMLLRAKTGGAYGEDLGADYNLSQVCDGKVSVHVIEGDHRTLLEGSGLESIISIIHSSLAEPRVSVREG", "test": "Fluorogenic assay (4-MUH substrate) for inhibition of recombinant FAS thioesterase domain", "type": "biochemical", "description": "The synthetic fluorogenic substrate, 4-methylumbelliferyl heptanoate (4-MUH), was purchased from Sigma (St. Louis, Mo.). […] Results are the average of triplicate time points."}, "[2]": {"test_system": "hydrolase expressed at 28 kDa", "test": "FP-TAMRA labeling of serine hydrolases in mammary cell lysates", "type": "biochemical, human", "experimental": "(§1) The serine hydrolase activity profiles of the prostate cell lines were measured using the fluorophosphonate probe fp-PEG-TAMRA using methods described previously (Liu et al., supra; Kidd et al., supra). Briefly, 40 μl of a 1 mg/ml solution of the soluble fractions of each cell lines were treated with 2 μM fp-PEG-TAMRA for one hour at ambient temperature. The labeling reactions were stopped by the addition of Laemmli buffer followed by boiling for 5 minutes. As a control for non-specific reaction of the probe, a duplicate sample was boiled for ten minutes prior to labeling with fp-PEG-TAMRA to denature all enzymatic activity. The labeled samples were resolved by 10% SDS-PAGE and visualized by scanning with a Hitachi flatbed scanner at 605 nm.\n(§2) Ebelactone A and B stocks were made in DMSO. Orlistat was made in EtOH. Cell lysate were generated at 1 mg/ml as described above. Samples (40 μg) were incubated with inhibitors for twenty minutes prior to addition of fp-PEG-TAMRA. The final concentration of DMSO or EtOH in each reaction was 10%. The labeling reactions were stopped by the addition of Laemmli sample buffer and samples were resolved on 10% SDS-PAGE and visualized.\n(§3) Labeling of serine hydrolases in the cell lysates with FP-TAMRA was challenged with each of the beta-lactones Inhibition experiments were performed under pre-steady state conditions, so that relative IC50 values could be compared. […] Tetrahydrolipstatin is selective for the hydrolase at 270 kDa that is expressed in breast cancer cell lines."}, "[3]": {"test_system": "hydrolase migrating at 31 kDa", "test": "FP-TAMRA labeling of serine hydrolases in mammary cell lysates", "type": "biochemical, human", "experimental": "as §1, §2, §3"}, "[4]": {"test_system": "cellular fatty acid synthesis in MDA-MB-435 cells", "test": "[14C]-acetate incorporation into cellular fatty acids, MDA-MB-435 cells", "details": "MDA-MB-435, 100 μM", "procedure": "Cells were seeded at density of 2.5×10^4 cells/well in 24-well plates. Prior to the addition of orlistat, the wells were washed twice with PBS. Serum-free RPMI containing 300 μg/ml BSA and insulin/transferrin/selenium supplement was added to the wells, with or without orlistat. The cells were incubated for two hours prior to the addition of 1 μCi of [^14C]-acetate to label newly synthesized fatty acids. After two hours, the labeling medium was removed and the cells were washed with PBS/EDTA and trypsinized The cells pellets were washed twice more with PBS and fatty acids were extracted by the addition of an equal mixture of chloroform-methanol for 30 minutes. The extracted material was dried under a stream of N2 gas and extracted further with water-saturated butanol. The butanol was removed by drying under a stream of N2 gas and labeled fatty acids were detected by scintillation counting.\nMDA-MB-435 cells were fed [^14C]-acetate as a precursor, and treated with orlistat."}, "HUVEC": {"test_system": "HUVEC", "test": "HUVEC proliferation by BrdU incorporation", "type": "cell-based, human", "details": "for IC50: Homo sapiens, HUVEC, read-out: concentration required for a half maximal effect on proliferation", "experimental": "The effect of orlistat on HUVEC proliferation induced by several mitogenic stimuli was assessed by BrdU incorporation. Orlistat and mitogen were added simultaneously to serum-starved cells, and BrdU included during the period equivalent to the second round of the cell cycle after mitogen addition. Orlistat inhibited proliferation induced by complete endothelial medium (containing a undefined mixture of mitogens), by bFGF and by VEGF. […] Cell proliferation was measured by incorporation of BrdU. HUVEC were seeded in 96 well plates at a density of 2000 cells/well and cultured in Endothelial Growth medium (EGM; Clonetics, Walkerville, Md.) for 24 h at 37° C. Cells were serum-starved for further 24 h in Endothelial Basal Medium (EBM; Clonetics, Walkerville, Md.)+0.2% FCS. Medium was replaced with orlistat (40-0 uM) diluted in (A) EGM, (B) EBM+2% FCS+bFGF (5 ng/ml), (C) EBM+2% FCS+VEGF (20 ng/ml) or (D) EBM+0.2% FCS. Cells were incubated 48 h at 37 deg C., with BrdU present during the final 24 h. Medium was removed, the cell monolayers fixed, and BrdU incorporation measured by ELISA. Proliferation was expressed as a percentage of that measured in the absence of orlistat."}, "MDA-MB-435 cells": {"test_system": "MDA-MB-435 cells", "test": "Apoptosis by DNA fragmentation ELISA", "details": "Homo sapiens, MDA-MB-435, read-out: half-maximal apoptotic response"}, "[5]": {"test_system": "cellular fatty acid synthesis", "test": "[14C]-acetate incorporation into fatty acids, prostate tumor cells", "type": "cell-based", "details": "level of orlistat inhibiting about 90% of activity-based labeling of FAS", "experimental": "Studies were performed to determine the effect of orlistat on tumor cells. As a first step, we measured the ability to inhibit the activity of FAS in whole cells. […] . A concentration-dependent inhibition of labeling by FP-Bodipy was evident (FIG. 2; top panel), indicating enzyme inhibition. […] .\nInhibition of fatty acid synthesis by orlistat."}, "normal HMECs": {"test_system": "normal HMECs", "test": "Apoptosis by DNA fragmentation ELISA"}, "[6]": {"details": "recombinant FAS TE, 4-MUH substrate, 30 min pre-incubation at 37 deg.C, read-out: apparent Ki"}}, "note": "Where two headings read alike, the source gives them in different places.", "data": [{"smiles": "O=C1O/C(=C\\Cc2ccccc2)[C@@H]1Cc1ccccc1", "note": "[2d]", "values": [{"measurement": "Ki", "setting": "[1]; [6]", "value": "5.04 ± 2.1", "unit": "µM"}]}, {"smiles": "CC[C@H](C)[C@@H](O)[C@H](C)C(=O)[C@H](C)/C=C(\\C)C[C@H](C)C1OC(=O)[C@H]1C", "note": "(some centres unmarked) [ebelactone A]", "values": [{"measurement": "inhibition of labeling of 28 kDa hydrolase", "setting": "[2]", "value": "potent inhibitor"}, {"measurement": "inhibition of labeling of 31 kDa hydrolase", "setting": "[3]", "value": "far less effective"}]}, {"smiles": "CCCCC[C@@H]1OC(=O)[C@]1(C)CCCC", "note": "[8a, (3R,4S)-3-butyl-3-methyl-4-pentyloxetan-2-one]", "values": [{"measurement": "Ki", "setting": "[1]; [6]", "value": "14.6 ± 4", "unit": "µM"}]}, {"smiles": "O=C1O[C@H](CCc2ccccc2)[C@@H]1Cc1ccccc1", "note": "[3d]", "values": [{"measurement": "Ki", "setting": "[1]; [6]", "value": "2.5 ± 0.47", "unit": "µM"}]}, {"smiles": "CCCCCCCCCCC[C@@H](C[C@@H]1OC(=O)[C@H]1CCCCCC)OC(=O)[C@H](CC(C)C)NC=O", "note": "[Orlistat, tetrahydrolipstatin]", "values": [{"measurement": "reduction of incorporation of [14C]-acetate into cellular fatty acids", "setting": "[4]", "value": "approximately 70%"}, {"measurement": "IC50", "setting": "HUVEC; VEGF", "value": 1.25, "unit": "µM"}, {"measurement": "IC50", "setting": "HUVEC; bFGF", "value": 1, "unit": "µM"}, {"measurement": "IC50", "setting": "HUVEC; complete medium", "value": 4, "unit": "µM"}, {"measurement": "concentration at which maximum inhibition of proliferation was achieved", "setting": "HUVEC; complete medium, bFGF or VEGF", "value": "≥ 10", "unit": "µM"}, {"measurement": "maximum inhibition of proliferation", "setting": "HUVEC; stimulated with VEGF", "value": "~80", "unit": "%"}, {"measurement": "maximum inhibition of proliferation", "setting": "HUVEC; stimulated with bFGF", "value": "~90", "unit": "%"}, {"measurement": "maximum inhibition of proliferation", "setting": "HUVEC; stimulated with complete medium", "value": "~90", "unit": "%"}, {"measurement": "EC50", "setting": "MDA-MB-435 cells", "value": "~4", "unit": "µM"}, {"measurement": "reduction of total cellular fatty acid synthesis", "setting": "[5]", "value": "approximately 70%"}, {"measurement": "apoptotic response across a range of orlistat", "setting": "normal HMECs", "value": "No effect"}]}, {"smiles": "O=C1O/C(=C\\CC2CCCCC2)[C@@H]1CC1CCCCC1", "note": "[2c]", "values": [{"measurement": "Ki", "setting": "[1]; [6]", "value": "> 100", "unit": "µM"}]}, {"smiles": "O=C1O[C@H](CCC2CCCC2)[C@@H]1CC1CCCC1", "note": "[3b]", "values": [{"measurement": "Ki", "setting": "[1]; [6]", "value": "13.5 ± 7.8", "unit": "µM"}]}, {"smiles": "O=C1O[C@H](CCc2ccccc2)[C@H]1Cc1ccccc1", "note": "[trans-3d]", "values": [{"measurement": "Ki", "setting": "[1]", "value": "3.3 ± 0.2", "unit": "µM"}]}, {"smiles": "CCCCC[C@H]1OC(=O)[C@@H]1CCCC", "note": "[trans-3a, (3R,4R)-3-butyl-4-pentyloxetan-2-one]", "values": [{"measurement": "Ki", "setting": "[1]; [6]", "value": "4.01 ± 1.9", "unit": "µM"}]}, {"smiles": "CCCCC[C@@H]1OC(=O)[C@@H]1CCCC", "note": "(stereo in doubt) [3a, (3R,4S)-3-butyl-4-pentyloxetan-2-one]", "values": [{"measurement": "Ki", "setting": "[1]; [6]", "value": "23.1 ± 4.2", "unit": "µM"}]}, {"smiles": "COC(=O)CC[C@H]1OC(=O)[C@H]1CC(=O)OC", "note": "[3e]", "values": [{"measurement": "Ki", "setting": "[1]; [6]", "value": "> 100", "unit": "µM"}]}, {"smiles": "CC[C@@H]1C(=O)OC1[C@@H](C)C/C(C)=C/[C@@H](C)C(=O)[C@@H](C)[C@H](O)[C@@H](C)CC", "note": "(some centres unmarked) [ebelactone B]", "values": [{"measurement": "inhibition of labeling of 28 kDa hydrolase", "setting": "[2]", "value": "little effect"}, {"measurement": "inhibition of labeling of 31 kDa hydrolase", "setting": "[3]", "value": "abolished labeling"}]}, {"smiles": "O=C1O[C@H](CCC2CCCCC2)[C@@H]1CC1CCCCC1", "note": "[3c]", "values": [{"measurement": "Ki", "setting": "[1]; [6]", "value": "7.7 ± 0.43", "unit": "µM"}]}, {"smiles": "CCCCC[C@@H]1OC(=O)[C@@]1(CCCC)Cc1ccccc1", "note": "[8b, (3S,4S)-3-benzyl-3-butyl-4-pentyloxetan-2-one]", "values": [{"measurement": "Ki", "setting": "[1]; [6]", "value": "19.2 ± 0.36", "unit": "µM"}]}]}
